In paper PMC7508162 (Frontiers in Pharmacology, 2020):

What was measured:
human NPP5 = molecular target: T1, human NPP5 (Homo sapiens, UniProt Q9UJA9); assay: NPP5 assay with ϵ-NAD+ as substrate; format: biochemical; settings: for inhibition at 10 µM: 10 µM test compound; for Ki: 20 µM ϵ-NAD+, read-out: Ki ± SEM
T1 construct: the catalytic domains of the enzymes were amplified and sub-cloned into the expression vector pACGP67 A/B; 9xHis (C); made in house; host or cells: Sf9 insect cells (baculovirus, pACGP67 A/B)
T1 sequence (Q9UJA9 25-431 limits assumed): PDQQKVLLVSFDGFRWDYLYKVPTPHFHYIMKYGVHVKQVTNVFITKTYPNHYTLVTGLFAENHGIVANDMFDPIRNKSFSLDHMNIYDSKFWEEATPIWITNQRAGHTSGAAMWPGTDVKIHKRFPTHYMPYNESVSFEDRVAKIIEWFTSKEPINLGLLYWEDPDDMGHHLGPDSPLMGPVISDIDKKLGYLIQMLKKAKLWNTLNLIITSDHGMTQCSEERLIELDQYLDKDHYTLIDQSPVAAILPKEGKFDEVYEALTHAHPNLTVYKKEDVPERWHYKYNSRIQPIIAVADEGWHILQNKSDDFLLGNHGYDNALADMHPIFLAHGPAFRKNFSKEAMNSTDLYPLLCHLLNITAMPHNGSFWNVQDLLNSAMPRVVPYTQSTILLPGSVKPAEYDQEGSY
From the text: The cDNAs of the human enzymes NPP1, NPP3, NPP5, CD38 and CD73 (Genbank accession no. NM_006258, NM_005021, NM_021572, NM_ 001775, and NM_002526, respectively) were obtained from Origene (Rockville, USA). Soluble enzymes were produced as previously reported with some modifications ([Lee et al., 2015]; [Junker et al., 2019]). Briefly, the catalytic domains of the enzymes were amplified and sub-cloned into the expression vector pACGP67 A/B modified with the addition of 9 x histidine tag (His-tag) at the C-terminus (except for NPP1). The plasmids were transfected in Sf9 insect cells using Cellfectin™ II Reagent (Thermo Fisher Scientific, MA, USA) and ProEasy™ baculovirus linearized DNA (Cat.#A10S, AB Vector, LLC). Protein expression was conducted for 48 h at 27°C. The signal peptide sequence of the expression vector shuttled the proteins into the supernatant. The supernatant medium was collected, and the enzymes were purified using HisPur™ Ni^2+-NTA spin columns according to the manufacturer’s protocol. The protein concentration was determined by the method previously described by [Lowry et al. (1951)].
The assays were performed in analogy to published procedures ([Blacher et al., 2015]). The enzymatic activity of human NPP3 and NPP5 (soluble forms expressed in insect cells and purified as previously described ([Lee et al., 2015]; [Lopez et al., 2020]) was measured using 1,N^6-etheno-nicotinamide adenine dinucleotide (ϵ-NAD^+) as a substrate, which is hydrolyzed to fluorescent 1,N^6-etheno-AMP (ϵ-AMP). The enzymatic reactions were performed in reaction buffer [10 mM N-cyclohexyl-2-aminoethanesulfonic acid (CHES), 2 mM CaCl2, and 1 mM MgCl2, pH 9.0 in H2O]. Purified NPP3 (90 ng) or NPP5 (400 ng), 20 µM of ϵ-NAD^+ and 10 µM of the test compound were incubated for 30 min at 37°C. The relative fluorescence at 270 nm excitation and 420 nm emission was detected by a fluorescence microplate reader (Flexstation, Medical Devices LLC. USA, Softmax Pro software to collect the data).

NTPDase2 = molecular target: T2, NTPDase2 (Homo sapiens, UniProt Q9Y5L3); assay: Malachite green assay for NTPDase2; format: biochemical; set-up: expressed in transfected cells; host or cells: COS-7 cell membrane preparations; settings: for Ki: ATP 50 µM, recombinant COS-7 cell membrane preparation, read-out: Ki ± SEM
T2 sequence (Q9Y5L3 1-495): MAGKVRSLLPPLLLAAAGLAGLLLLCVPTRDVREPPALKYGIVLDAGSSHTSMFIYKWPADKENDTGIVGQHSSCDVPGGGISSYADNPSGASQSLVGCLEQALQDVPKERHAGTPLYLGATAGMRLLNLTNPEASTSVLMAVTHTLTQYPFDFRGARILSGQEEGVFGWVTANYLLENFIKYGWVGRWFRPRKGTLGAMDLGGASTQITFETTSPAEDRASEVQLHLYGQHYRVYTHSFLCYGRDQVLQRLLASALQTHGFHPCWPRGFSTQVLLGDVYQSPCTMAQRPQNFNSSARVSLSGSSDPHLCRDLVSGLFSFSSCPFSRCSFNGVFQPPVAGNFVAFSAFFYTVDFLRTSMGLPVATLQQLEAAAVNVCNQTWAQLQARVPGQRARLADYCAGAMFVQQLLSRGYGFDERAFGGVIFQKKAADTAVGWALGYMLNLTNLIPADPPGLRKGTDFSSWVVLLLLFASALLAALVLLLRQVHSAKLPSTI
Experimental: The enzymatic activity assay was determined essentially as previously described ([Cogan et al., 1999]) with a few adaptations. The reaction buffer contained 10 mM HEPES, 2 mM CaCl2, 1 mM MgCl2, pH 7.4 in a final volume of 50 μl in transparent 96-well half area plates. For CD39 (NTPDase1), we made use of human umbilical cord membranes preparations which express high levels of the enzyme. For the other human NTPDase isoenzymes, we had to resort to recombinant expression. Human umbilical cord membrane preparations (250 ng) natively expressing high amounts of CD39, or the respective recombinant COS-7 cell membrane preparations expressing the appropriate NTPDase isoenzyme (ca. 100 ng of protein depending on enzyme activity) ([Sévigny et al., 1997]; [Lecka et al., 2013]) with or without inhibitor were preincubated at 37°C and gentle shaking (Eppendorf Thermomixer comfort at 500 rpm) for 5 min. The amount of enzyme preparation was adjusted to ensure 10–20% of substrate conversion. […] ([Kukulski et al., 2005]). After 15 min of incubation at 37°C with gentle shaking, the reaction was stopped by adding the detection reagents (20 µl malachite green solution, 0.6 mM, and 30 µl ammonium molybdate solution, 20 mM, in sulfuric acid, 1.5 M). The released (inorganic) phosphate was quantified after 20 min of gentle shaking at 25°C by measuring the absorption of the malachite green-phosphomolybdate complex at 600 nm using a BMG PheraStar FS plate reader (BMG Labtech GmbH, Ortenberg, Germany). The corrected absorption was calculated by subtracting the absorption of the negative control samples, which were incubated with denatured enzyme (90°C, 15 min), and the inhibition was calculated as follows:
% Inhibition=(B−T)/B*100%
where B is the average corrected absorption of the positive control without inhibitor and T the corrected absorption in the presence of test compound.
Full concentration-inhibition curves were determined with inhibitor concentrations ranging from 0.1 to 300 µM in the presence of 2% DMSO. Three independent experiments were performed (n = 3) and curves were calculated by the GraphPad Prism 8 software. The Ki value was calculated using the Cheng-Prusoff equation for competitive inhibitors: […]

Compound	inhibition at 10 µM (human NPP5) [%]	Ki (human NPP5) [µM]	Ki (NTPDase2; NTPDase2) [µM]	NTPDase2 inhibition (in words) (NTPDase2)	% inhibition (NTPDase2; NTPDase2, test concentration not given) [%]
CCCCNc1nc2c(NC)ncnc2n1[C@@H]1O[C@H](COP(=O)(O)OP(=O)(O)C(Br)(Br)P(=O)(O)O)[C@@H](O)[C@H]1O [Compound 33, (Dibromo((((((2R,3S,4R,5R)-5-(8-(butylamino)-6-(methylamino)-9H-purin-9-yl)-3,4-dihydroxy-tetrahydrofuran-2-yl)methoxy)(hydroxy)phosphoryl)oxy)-(hydroxy)phosphoryl)methyl)-phosphonic Acid]	1	> 10	78 ± 0.6		
CCCCSc1nc2c(N)ncnc2n1[C@@H]1O[C@H](COP(=O)(O)OP(=O)(O)C(Br)(Br)P(=O)(O)O)[C@@H](O)[C@H]1O [Compound 31, (((((((2R,3S,4R,5R)-5-(6-Amino-8-(butylthio)-9H-purin-9-yl)-3,4-dihydroxytetrahydrofuran-2-yl)methoxy)(hydroxy)-phosphoryl)oxy)(hydroxy)phosphoryl)dibromomethyl)-phosphonic Acid]	2	> 10	22.2 ± 0.5	weakly inhibit	
CCN(CC)c1ncnc2c1ncn2[C@@H]1O[C@H](COP(=O)(O)OP(=O)(O)C(Br)(Br)P(=O)(O)O)[C@@H](O)[C@H]1O [ARL67156, (Dibromo((((((2R,3S,4R,5R)-5-(6-(diethylamino)-9H-purin-9-yl)-3,4-dihydroxytetrahydrofuran-2-yl)methoxy)-(hydroxy)-phosphoryl)oxy)(hydroxy)phosphoryl)methyl)-phosphonic Acid, reference compound]	-3	> 10	> 50		18
